According to PubChem BioAssay AID1845216 (Molecular Pharmacology Branch, DTP, NCI, 2023):

System: SW 982 tumor spheroid viability
Experiment: Anticancer human tumor SW 982 cell line growth inhibition;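 also: spheroids exposed to compound for 7 days before readout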
Details: spheroids with HUVEC and MSC; for viability, T/C: stronger effect = lower value
Method in brief: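 Complex tumor spheroids combined malignant cells with endothelial cells and mesenchymal stem cells. DNA-damaging drugs and DNA repair inhibitors were tested alone and in combination, at half-log dilutions down from clinical Cmax (top 10 microM if Cmax unknown), 0.25% DMSO final.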

[1] = curve of first compound, second compound 30 pM
[2] = curve of first compound, second compound 94.9 pM
[3] = curve of first compound, second compound 0.0003 µM
[4] = curve of first compound, second compound 0.000949 µM
[5] = curve of first compound, second compound 0.003 µM
[6] = second compound 30 pM, first compound 0.00949 µM
[7] = second compound 30 pM, first compound 0.03 µM
[8] = second compound 30 pM, first compound 0.0949 µM
[9] = second compound 30 pM, first compound 0.3 µM
[10] = second compound 30 pM, first compound 0.949 µM
[11] = second compound 30 pM, first compound 3 µM
[12] = second compound 94.9 pM, first compound 0.00949 µM
[13] = second compound 94.9 pM, first compound 0.03 µM
[14] = second compound 94.9 pM, first compound 0.0949 µM
[15] = second compound 94.9 pM, first compound 0.3 µM
[16] = second compound 94.9 pM, first compound 0.949 µM
[17] = second compound 94.9 pM, first compound 3 µM
[18] = second compound 0.0003 µM, first compound 0.00949 µM
[19] = second compound 0.0003 µM, first compound 0.03 µM
[20] = second compound 0.0003 µM, first compound 0.0949 µM
[21] = second compound 0.0003 µM, first compound 0.3 µM
[22] = second compound 0.0003 µM, first compound 0.949 µM
[23] = second compound 0.0003 µM, first compound 3 µM
[24] = second compound 0.000949 µM, first compound 0.00949 µM
[25] = second compound 0.000949 µM, first compound 0.03 µM
[26] = second compound 0.000949 µM, first compound 0.0949 µM
[27] = second compound 0.000949 µM, first compound 0.3 µM
[28] = second compound 0.000949 µM, first compound 0.949 µM
[29] = second compound 0.000949 µM, first compound 3 µM
[30] = second compound 0.003 µM, first compound 0.00949 µM
[31] = second compound 0.003 µM, first compound 0.03 µM
[32] = second compound 0.003 µM, first compound 0.0949 µM
[33] = second compound 0.003 µM, first compound 0.3 µM
[34] = second compound 0.003 µM, first compound 0.949 µM
[35] = second compound 0.003 µM, first compound 3 µM

`Cc1cc(C)c(CNC(=O)c2cc(-c3ccc(CN4CCOCC4)cc3)cc3c2cnn3C2CCCC2)c(=O)[nH]1` + COc1cc2c(cc1O)CCNC21CSC2c3c(OC(C)=O)c(C)c4c(c3C(COC1=O)N1C(O)C3Cc5cc(C)c(OC)c(O)c5C(C21)N3C)OCO4 gave an IC50 [1] of over 10000 nM, an IC50 [2] of over 10000 nM and an IC50 [3] of 10000 nM. For the same compound, the IC50 [4] was under 31.6 nM, the IC50 [5] was under 31.6 nM and the viability, T/C (second compound 30 pM, first compound 0.0316 µM) was 97.9%. The viability, T/C (second compound 30 pM, first compound 0.1 µM) was 99.7%, the viability, T/C (second compound 30 pM, first compound 0.316 µM) was 104% and the viability, T/C (second compound 30 pM, first compound 1 µM) was 96.7%. For the same compound, the viability, T/C (second compound 30 pM, first compound 3.16 µM) was 92%, the viability, T/C (second compound 30 pM, first compound 10 µM) was 66.7% and the viability, T/C (second compound 94.9 pM, first compound 0.0316 µM) was 95.4%. It also gave a viability, T/C (second compound 94.9 pM, first compound 0.1 µM) of 106%, a viability, T/C (second compound 94.9 pM, first compound 0.316 µM) of 102% and a viability, T/C (second compound 94.9 pM, first compound 1 µM) of 103%. It also gave a viability, T/C (second compound 94.9 pM, first compound 3.16 µM) of 88.4%, a viability, T/C (second compound 94.9 pM, first compound 10 µM) of 57.9% and a viability, T/C (second compound 0.0003 µM, first compound 0.0316 µM) of 74.7%. The viability, T/C (second compound 0.0003 µM, first compound 0.1 µM) was 76%, the viability, T/C (second compound 0.0003 µM, first compound 0.316 µM) was 84% and the viability, T/C (second compound 0.0003 µM, first compound 1 µM) was 80.7%. It also gave a viability, T/C (second compound 0.0003 µM, first compound 3.16 µM) of 71.5%, a viability, T/C (second compound 0.0003 µM, first compound 10 µM) of 49.8% and a viability, T/C (second compound 0.000949 µM, first compound 0.0316 µM) of 35.7%. For the same compound, the viability, T/C (second compound 0.000949 µM, first compound 0.1 µM) was 39.9%, the viability, T/C (second compound 0.000949 µM, first compound 0.316 µM) was 37.5% and the viability, T/C (second compound 0.000949 µM, first compound 1 µM) was 36.1%. The viability, T/C (second compound 0.000949 µM, first compound 3.16 µM) was 27.6%, the viability, T/C (second compound 0.000949 µM, first compound 10 µM) was 17.8% and the viability, T/C (second compound 0.003 µM, first compound 0.0316 µM) was 0.71%. For the same compound, the viability, T/C (second compound 0.003 µM, first compound 0.1 µM) was 0.36%, the viability, T/C (second compound 0.003 µM, first compound 0.316 µM) was 0.51% and the viability, T/C (second compound 0.003 µM, first compound 1 µM) was 0.31%. For the same compound, the viability, T/C (second compound 0.003 µM, first compound 3.16 µM) was 0.29% and the viability, T/C (second compound 0.003 µM, first compound 10 µM) was 0.83%.

`CNCc1ccc(-c2cc(-c3nc(-c4ccc(S(=O)(=O)C(C)C)cc4)cnc3N)on2)cc1` + COc1cc2c(cc1O)CCNC21CSC2c3c(OC(C)=O)c(C)c4c(c3C(COC1=O)N1C(O)C3Cc5cc(C)c(OC)c(O)c5C(C21)N3C)OCO4 gave an IC50 [1] of 211 nM, an IC50 [2] of 131 nM and an IC50 [3] of 107 nM. For the same compound, the IC50 [4] was under 9.49 nM, the IC50 [5] was under 9.49 nM and the viability, T/C [6] was 99.6%. It also gave a viability, T/C [7] of 95.6%, a viability, T/C [8] of 78.3% and a viability, T/C [9] of 33.4%. The viability, T/C [10] was 23.8%, the viability, T/C [11] was 2.48% and the viability, T/C [12] was 100%. It also gave a viability, T/C [13] of 94%, a viability, T/C [14] of 55.9% and a viability, T/C [15] of 26.4%. The viability, T/C [16] was 18.9%, the viability, T/C [17] was 2.12% and the viability, T/C [18] was 84.7%. The viability, T/C [19] was 81%, the viability, T/C [20] was 47.9% and the viability, T/C [21] was 28.2%. The viability, T/C [22] was 16.5%, the viability, T/C [23] was 2.22% and the viability, T/C [24] was 49.3%. The viability, T/C [25] was 39.2%, the viability, T/C [26] was 28.2% and the viability, T/C [27] was 15.9%. For the same compound, the viability, T/C [28] was 9.5%, the viability, T/C [29] was 0.69% and the viability, T/C [30] was 0.4%. It also gave a viability, T/C [31] of 1.22%, a viability, T/C [32] of 0.92% and a viability, T/C [33] of 0.5%. For the same compound, the viability, T/C [34] was 1.07% and the viability, T/C [35] was 0.31%.

`Cc1sc2c(c1C)C(c1ccc(Cl)cc1)=NC(CC(=O)Nc1ccc(O)cc1)c1nnc(C)n1-2` (configuration not stated) + COc1cc2c(cc1O)CCNC21CSC2c3c(OC(C)=O)c(C)c4c(c3C(COC1=O)N1C(O)C3Cc5cc(C)c(OC)c(O)c5C(C21)N3C)OCO4 showed an IC50 [1] of 257 nM, an IC50 [2] of 344 nM and an IC50 [3] of 482 nM. It also gave an IC50 [4] of 9.49 nM, an IC50 [5] of under 9.49 nM and a viability, T/C [6] of 95.5%. For the same compound, the viability, T/C [7] was 94.6%, the viability, T/C [8] was 75.5% and the viability, T/C [9] was 46.2%. The viability, T/C [10] was 28.5%, the viability, T/C [11] was 23.6% and the viability, T/C [12] was 97.4%. It also gave a viability, T/C [13] of 96.7%, a viability, T/C [14] of 71.1% and a viability, T/C [15] of 53.8%. It also gave a viability, T/C [16] of 33.2%, a viability, T/C [17] of 21.6% and a viability, T/C [18] of 76.6%. For the same compound, the viability, T/C [19] was 82.5%, the viability, T/C [20] was 70.4% and the viability, T/C [21] was 68%. The viability, T/C [22] was 24.9%, the viability, T/C [23] was 13.6% and the viability, T/C [24] was 41.4%. The viability, T/C [25] was 41.3%, the viability, T/C [26] was 64.8% and the viability, T/C [27] was 19.2%. The viability, T/C [28] was 4.8%, the viability, T/C [29] was 3.12% and the viability, T/C [30] was 0.7%. It also gave a viability, T/C [31] of 8.8%, a viability, T/C [32] of 0.33% and a viability, T/C [33] of 0.26%. It also gave a viability, T/C [34] of 0.37% and a viability, T/C [35] of 0.99%.

`COc1cc2c(cc1O)CCNC21CSC2c3c(OC(C)=O)c(C)c4c(c3C(COC1=O)N1C(O)C3Cc5cc(C)c(OC)c(O)c5C(C21)N3C)OCO4` (configuration not stated) was tested, and the viability, T/C (compound 0.003 µM) was 0.57% [middle of 10 runs] and the IC50 (compound alone, run of 12/12/2019) was 0.667 nM [middle of 10 runs].
